Publication PMC3163364, “Preformulation Studies of Zidovudine Derivatives: Acid Dissociation Constants, Differential Scanning Calorimetry, Thermogravimetry, X-Ray Powder Diffractometry and Aqueous Stability Studies” (Scientia Pharmaceutica, 2011)
Where two headings read alike, the source gives them in different places.

How the values were obtained:
[1] = pKa determination by differential scanning potentiometry (DSP); assay type: physicochemical
Protocol: In the differential scanning potentiometry (DSP) methodology, acid and basic groups generate negative and positive areas, respectively. Thus, the NH acidic groups of AZT and thymidine were used as reference to validate the DSP, since their pKa values had been previously reported.
A conventional pH-meter (GLP 21, Crison Instrument) with an Ag/AgCl-reference electrode was used. NaOH was added at 0.1 mL increments, with its corresponding pH value recorded from the average of two sample determinations using DMSO as the cosolvent (2.5 %) at 25 °C. The areas were calculated using the Origin 7 program. For the reference graph, an aliquot of 10 mL of HCl (0.1 mol L^−1) and 0.5 mL of DMSO was titrated with NaOH (0.1 mol L^−1); for the sample graphs, aliquots (10 mL) of HCl (0.1 mol L^−1), 0.5 mL DMSO and 0.12 mmol for each compound were titrated with NaOH (0.1 mol L^−1). The volume of each solution was completed to 20 mL with Milli-Q water before titration.

[2] = aqueous stability in buffers of different pH at 60 °C, HPLC; assay type: physicochemical; parameters: key to Aqueous stability: Stable: degradation products by HPLC were not observed after 80 h of experiment; Unstable: The determination was not possible due to a rapid decomposition; conditions: for half-life at 0.5 mM: aqueous buffer, read-out: t½
Description: Table 2 lists the pH media, experimental rate constants (kobs, when it could be determined) and their corresponding half-life times (t½).
The aqueous stability of AZT and their derivatives 2–6 was examined at different pH values: pH 1.0 (hydrochloric acid-potassium chloride); pH 2.6 (citric acid-sodium phosphate monobasic); pH 7.4 (sodium phosphate dibasic); pH 9.4 (sodium hydrogen carbonate-sodium hydroxide) and pH 13.2 (potassium chloride-sodium hydroxide). The buffer concentrations were 0.1 mol L^−1 and the ionic strength (μ) of the buffers was adjusted to 0.1 with calculated amount of sodium chloride (NaCl). All buffer solutions were prepared with Milli Q water. The pH of each solution was determined using a GLP 21 (Crison Instruments) pHmeter. Stock solutions (5 × 10^−5 mol mL^−1) of each compound were prepared in DMSO prior to use, with 10 μL of the stock solution being added to 990 μL of buffer, and the vials placed in a water bath at 60 °C during all the experiment. Each vial was withdrawn at predetermined time intervals, and immediately stored at −18 °C until being used. For their analysis, the samples were left to defrost, and the aliquots of 100 μL were sampled and added to 400 μL of MeOH at 25 °C. Then, the solution was analyzed by HPLC to determine the rate of disappearance of each compound.
Samples were analyzed using an HPLC system Agilent® 1100 equipped with Phenomenex® column: Hypersil ODS 5 μ particle diameter (4.6 × 250 mm). Detection was carried out with an UV detector at λ = 267 nm, using the following three solvent systems as mobile phases with a flow rate of 1 mL min^−1 at 35 °C: A); 50% phosphate buffer (pH 7.5, 0.02 mol L^−1), 50% MeOH and 2% THF; B) 60% phosphate buffer (pH 7.5, 0.02 mol L^−1), 40% MeOH and 2% THF; and; C) 65% phosphate buffer (pH 7.5, 0.02 mol L^−1), 35% MeOH and 2% THF to obtain an adequate peak separation.

[3] = cited from earlier work
[4] = Differential Scanning Calorimetry (DSC) and Thermogravimetry (TG); assay type: physicochemical; conditions: for DSC exothermic decomposition peak: accompanied by weight loss in TG, nitrogen atmosphere, 25–300 °C; for glass transition, small DSC endothermic peak (T onset): extrapolated onset temperature
Protocol: Compounds 2, 4, 5 and 6 also presented an exothermic decomposition peak above 150 °C, which is accompanied by a weight loss in the respective TG curves (Figure 3).
(§1) DSC measurements were carried out using a 2920 modulated DSC (TA Instrument). The temperature axis and the cell constant of the DSC were calibrated with indium. Weighed samples (1.5–3 mg, C-33 Microbalance, Cahan) were scanned in covered aluminium (Al) pans under a dynamic dry nitrogen atmosphere (50 mL min^−1) starting at 25 °C and raising the temperature in 5 °C steps until reaching 300 °C. TG measurements were performed with a TA Instrument Hi-res TG 2950 (TA Instrument). Samples (1.5–3 mg) were weighed in Al pans, starting at 25 °C and raising the temperature in 5 °C steps until reaching 300 °C, under a dynamic dry nitrogen atmosphere (50 mL min^−1). The Universal Analysis Version 2.5H software was used for both measurements. The XRPD patterns were determined at around 20 °C using a diffractometer (Miniflex 2000, Rigaku), with CuKα radiation (λ= 1.5418 Å) being obtained by Ni-filtration. Each sample was packed into an Al holder in the range of 5–50 (2Θ).

[5] = parameters: method as in earlier work; conditions: cited from earlier work
[6] = test system: HIV; parameters: method as in earlier work; conditions: previous in vitro studies; cited from earlier work
[7] = parameters: method as in earlier work; conditions: cited from earlier work; remark: listed apart in the source
[8] = X-Ray Powder Diffractometry (XRPD); assay type: physicochemical; conditions: around 20 °C, CuKα radiation
Protocol: XRPD analysis provides an accurate identification of crystalline and amorphous solid phases. The XRPD patterns of AZT and their derivatives 2–6 are depicted in Figure 4.
as §1

[9] = aqueous HCl solution with DMSO cosolvent, titrated with NaOH, DSP, DMSO 2.5 % cosolvent, 25 °C, calculated from area with eq. 2, read-out: pKa, NH group of the pyrimidinic base, experimental value
[10] = aqueous HCl solution with DMSO cosolvent, titrated with NaOH, DSP, DMSO 2.5 % cosolvent, 25 °C, calculated from area with eq. 2, read-out: pKa, aliphatic amine, experimental value

Cc1cn([C@H]2C[C@H](O)[C@@H](CO)O2)c(=O)[nH]c1=O [Thymidine, reference compound]
pKa ([1]; pKa, NH group of the pyrimidinic base, experimental value): 9.45

Cc1cn([C@H]2C[C@H](N=[N+]=[N-])[C@@H](CO)O2)c(=O)[nH]c1=O [compound 1, 3′-Azido-3′-deoxythymidine, reference compound]
pKa ([1]; DSP, DMSO 2.5 % cosolvent, 25 °C, calculated from area with eq. 2, read-out: pKa, NH group of the pyrimidinic base, experimental value): 9.42 | Aqueous stability ([2]; pH 1.0, 60 °C): Stable^a | aqueous stability over the studied pH media, in words ([2]; pH 1.0–13.2): stable at the studied pH media | Aqueous stability ([2]; pH 7.4, 60 °C): Stable^a | Aqueous stability ([2]; pH 9.4, 60 °C): Stable^a | Aqueous stability ([2]; pH 13.2, 60 °C): Stable^a | pKa, NH acidic group, previously reported experimental value [3]: 9.68

Cc1ccc(S(=O)(=O)OC[C@H]2O[C@@H](n3cc(C)c(=O)[nH]c3=O)C[C@@H]2N=[N+]=[N-])cc1 [compound 2]
half-life at 0.5 mM ([2]; pH 7.4, 60 °C): 12.1 h | half-life at 0.5 mM ([2]; pH 9.4, 60 °C): 0.775 h | half-life at 0.5 mM ([2]; pH 13.2, 60 °C): 0.765 h | Aqueous stability ([2]; pH 1.0, 60 °C): Stable^a | Degradation rate constant, kobs ([2]; pH 7.4, 60 °C): 0.94 10^−3 min^−1 | Degradation rate constant, kobs ([2]; pH 9.4, 60 °C): 14.9 10^−3 min^−1 | Degradation rate constant, kobs ([2]; pH 13.2, 60 °C): 15.1 10^−3 min^−1 | DSC exothermic decomposition peak [4]: above 150 °C | stability in rat plasma [5]: stable | anti-HIV activity [6]: lacked the necessary activity

Cc1cn2c(nc1=O)OC[C@H]1O[C@@H]2C[C@@H]1N=[N+]=[N-] [compound 3]
half-life at 0.5 mM ([2]; pH 1.0, 60 °C): 2.13 h | half-life at 0.5 mM ([2]; pH 7.4, 60 °C): 79.2 h | half-life at 0.5 mM ([2]; pH 9.4, 60 °C): 2.07 h | Degradation rate constant, kobs ([2]; pH 1.0, 60 °C): 5.43 10^−3 min^−1 | Degradation rate constant, kobs ([2]; pH 7.4, 60 °C): 0.15 10^−3 min^−1 | Degradation rate constant, kobs ([2]; pH 9.4, 60 °C): 5.58 10^−3 min^−1 | Aqueous stability ([2]; pH 13.2, 60 °C): Unstable^d | DSC exothermic decomposition peak [4]: 215 °C | stability in rat plasma ([5]; 30 h of incubation at 37 °C): showed stability | anti-HIV activity [6]: anti-HIV activity | cytotoxicity [7]: no cytotoxicity

Cc1cn([C@H]2C[C@H](N=[N+]=[N-])[C@@H](COC(=O)N3CCCCC3)O2)c(=O)[nH]c1=O [compound 4]
pKa [1, 9]: 8.61 | half-life at 0.5 mM ([2]; pH 13.2, 60 °C): 11.2 h | Aqueous stability ([2]; pH 1.0, 60 °C): Stable^a | Aqueous stability ([2]; pH 7.4, 60 °C): Stable^a | Aqueous stability ([2]; pH 9.4, 60 °C): Stable^a | Degradation rate constant, kobs ([2]; pH 13.2, 60 °C): 1.04 10^−3 min^−1 | kobs ([2]; pH 13.2, 60 °C): 0.00104 min⁻¹ | DSC exothermic decomposition peak [4]: above 150 °C

Cc1cn([C@H]2C[C@H](N=[N+]=[N-])[C@@H](COC(=O)N3CCNCC3)O2)c(=O)[nH]c1=O [compound 5]
pKa [1, 9]: 8.66 | pKa [1, 10]: 6.52 | half-life at 0.5 mM ([2]; pH 13.2, 60 °C): 3.97 h | Aqueous stability ([2]; pH 1.0, 60 °C): Stable^a | Aqueous stability ([2]; pH 7.4, 60 °C): Stable^a | Aqueous stability ([2]; pH 9.4, 60 °C): Stable^a | kobs ([2]; pH 13.2, 60 °C): 0.00323 min⁻¹ | DSC exothermic decomposition peak [4]: above 150 °C | glass transition, small DSC endothermic peak (T onset) [4]: 35.1 °C | solid state by XRPD (crystalline or amorphous) [8]: amorphous

Cc1cn([C@H]2C[C@H](N=[N+]=[N-])[C@@H](COC(=O)NCCN3CCNCC3)O2)c(=O)[nH]c1=O [compound 6]
pKa [1, 10]: 9.03 | half-life at 0.5 mM ([2]; pH 13.2, 60 °C): 6.48 h | Aqueous stability ([2]; pH 1.0, 60 °C): Stable^a | Aqueous stability ([2]; pH 7.4, 60 °C): Stable^a | Aqueous stability ([2]; pH 9.4, 60 °C): Stable^a | Degradation rate constant, kobs ([2]; pH 13.2, 60 °C): 1.96 10^−3 min^−1 | kobs ([2]; pH 13.2, 60 °C): 0.00196 min⁻¹ | DSC exothermic decomposition peak [4]: above 150 °C | glass transition, small DSC endothermic peak (T onset) [4]: 42.5 °C | solid state by XRPD (crystalline or amorphous) [8]: amorphous

CC[C@H]1OC(=O)[C@H](C)[C@@H](O[C@H]2C[C@@](C)(OC)[C@@H](O)[C@H](C)O2)[C@H](C)[C@@H](O[C@@H]2O[C@H](C)C[C@H](N(C)C)[C@H]2O)[C@](C)(O)C[C@@H](C)C(=O)[C@H](C)[C@@H](O)[C@]1(C)O [erytromycine]
pKa of compounds used for regression of DSP area vs pKa (eq. 2) ([3]; reference values, source not given): 8.80
